In ChEMBL document CHEMBL3627608, “Crystal structures of human RIP2 kinase catalytic domain complexed with ATP-competitive inhibitors: Foundations for understanding inhibitor selectivity” (Bioorg Med Chem, 2015):

Legend:
[1] = molecular target: CDK6/cyclin D1 (Homo sapiens) (UniProt P24385+Q00534); assay: Inhibition of CDK6/cyclin D1 (unknown origin) at 10 uM after 120 mins P33 radiolabeled kinase activity assay; assay type: protein-complex assay
[2] = molecular target: Calcium/calmodulin-dependent protein kinase type II subunit gamma (Homo sapiens) (UniProt Q13555); assay: Inhibition of CAMK2gamma (unknown origin) at 10 uM after 120 mins P33 radiolabeled kinase activity assay
Sequence of Calcium/calmodulin-dependent protein kinase type II subunit gamma (Homo sapiens) (Q13555 whole entry): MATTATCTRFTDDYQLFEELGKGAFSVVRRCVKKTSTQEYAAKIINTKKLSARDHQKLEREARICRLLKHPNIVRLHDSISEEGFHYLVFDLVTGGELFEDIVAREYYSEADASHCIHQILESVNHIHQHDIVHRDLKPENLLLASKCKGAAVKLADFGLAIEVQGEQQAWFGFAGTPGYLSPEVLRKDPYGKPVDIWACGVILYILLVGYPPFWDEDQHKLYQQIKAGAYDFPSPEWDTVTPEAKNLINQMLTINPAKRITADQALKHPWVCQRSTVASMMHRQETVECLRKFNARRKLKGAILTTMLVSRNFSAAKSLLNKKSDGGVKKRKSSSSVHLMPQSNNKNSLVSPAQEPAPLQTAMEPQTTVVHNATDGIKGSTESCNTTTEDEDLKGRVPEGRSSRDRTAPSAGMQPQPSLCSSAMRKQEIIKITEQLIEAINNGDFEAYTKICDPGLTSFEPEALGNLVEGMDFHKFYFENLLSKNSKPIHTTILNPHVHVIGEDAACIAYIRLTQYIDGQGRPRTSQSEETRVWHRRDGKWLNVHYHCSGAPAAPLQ

[3] = molecular target: T1, Ephrin type-B receptor 1 (Homo sapiens) (UniProt P54762); assay: Inhibition of EPHB1 (unknown origin) at 10 uM after 120 mins P33 radiolabeled kinase activity assay
T1 sequence (whole entry): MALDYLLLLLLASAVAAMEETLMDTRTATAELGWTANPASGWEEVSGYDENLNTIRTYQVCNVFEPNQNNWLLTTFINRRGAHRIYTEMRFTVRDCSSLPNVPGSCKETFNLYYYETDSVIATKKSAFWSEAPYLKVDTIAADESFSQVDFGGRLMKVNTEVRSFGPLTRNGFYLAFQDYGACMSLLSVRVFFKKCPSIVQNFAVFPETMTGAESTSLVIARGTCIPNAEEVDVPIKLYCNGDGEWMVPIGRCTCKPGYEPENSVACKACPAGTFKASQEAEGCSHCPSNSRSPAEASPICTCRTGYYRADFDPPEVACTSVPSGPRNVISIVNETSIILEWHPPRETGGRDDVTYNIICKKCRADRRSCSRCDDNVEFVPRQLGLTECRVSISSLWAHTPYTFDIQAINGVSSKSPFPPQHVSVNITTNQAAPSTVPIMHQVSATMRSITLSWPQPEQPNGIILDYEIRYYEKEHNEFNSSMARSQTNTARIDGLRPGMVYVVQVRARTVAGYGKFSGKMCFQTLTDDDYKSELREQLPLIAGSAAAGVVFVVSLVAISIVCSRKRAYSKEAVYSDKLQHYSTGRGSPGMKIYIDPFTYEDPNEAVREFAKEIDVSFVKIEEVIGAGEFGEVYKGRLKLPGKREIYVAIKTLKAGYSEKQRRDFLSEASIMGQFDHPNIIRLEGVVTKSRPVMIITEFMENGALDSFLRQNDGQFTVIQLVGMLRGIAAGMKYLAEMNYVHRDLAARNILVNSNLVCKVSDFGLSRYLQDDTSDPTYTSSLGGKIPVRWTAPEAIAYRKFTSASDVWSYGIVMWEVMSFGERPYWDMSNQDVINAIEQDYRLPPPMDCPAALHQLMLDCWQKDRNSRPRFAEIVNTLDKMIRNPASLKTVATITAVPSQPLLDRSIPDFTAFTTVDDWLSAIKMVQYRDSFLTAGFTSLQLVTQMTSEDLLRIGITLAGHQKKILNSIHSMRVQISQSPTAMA

[4] = molecular target: Protein kinase C alpha type (Homo sapiens) (UniProt P17252); assay: Inhibition of PKCalpha (unknown origin) at 10 uM after 120 mins P33 radiolabeled kinase activity assay
[5] = molecular target: Cyclin-dependent kinase 1/cyclin B1 (Homo sapiens) (UniProt P06493+P14635); assay: Inhibition of CDK1/cyclin B (unknown origin) at 10 uM after 120 mins P33 radiolabeled kinase activity assay; assay type: protein-complex assay
Sequence of Cyclin-dependent kinase 1/cyclin B1 (Homo sapiens) (P06493 whole entry, looked up): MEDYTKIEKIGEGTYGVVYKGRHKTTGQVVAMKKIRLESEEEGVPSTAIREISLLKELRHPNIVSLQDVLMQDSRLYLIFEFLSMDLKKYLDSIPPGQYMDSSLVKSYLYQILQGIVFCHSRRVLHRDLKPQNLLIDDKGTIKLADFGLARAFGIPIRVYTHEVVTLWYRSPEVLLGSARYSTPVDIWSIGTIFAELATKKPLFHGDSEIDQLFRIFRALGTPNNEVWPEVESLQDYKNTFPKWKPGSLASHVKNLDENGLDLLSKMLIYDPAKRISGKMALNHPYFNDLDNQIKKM
Sequence of Cyclin-dependent kinase 1/cyclin B1 (Homo sapiens) (P14635 whole entry, looked up): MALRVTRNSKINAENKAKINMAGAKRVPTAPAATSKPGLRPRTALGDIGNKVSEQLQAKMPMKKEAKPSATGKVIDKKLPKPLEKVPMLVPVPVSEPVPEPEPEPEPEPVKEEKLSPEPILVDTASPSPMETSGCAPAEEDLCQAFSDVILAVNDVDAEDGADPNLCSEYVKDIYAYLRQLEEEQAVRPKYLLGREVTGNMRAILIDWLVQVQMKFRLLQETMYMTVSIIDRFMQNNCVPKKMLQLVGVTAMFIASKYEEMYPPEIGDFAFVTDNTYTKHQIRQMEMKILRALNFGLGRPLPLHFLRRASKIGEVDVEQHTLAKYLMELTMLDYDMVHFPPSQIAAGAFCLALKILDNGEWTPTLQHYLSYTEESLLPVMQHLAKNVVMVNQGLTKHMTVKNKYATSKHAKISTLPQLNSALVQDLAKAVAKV

[6] = molecular target: MAP kinase-interacting serine/threonine-protein kinase 1 (Homo sapiens) (UniProt Q9BUB5); assay: Inhibition of MNK1 (unknown origin) at 10 uM after 120 mins P33 radiolabeled kinase activity assay
Sequence of MAP kinase-interacting serine/threonine-protein kinase 1 (Homo sapiens) (Q9BUB5 whole entry, looked up): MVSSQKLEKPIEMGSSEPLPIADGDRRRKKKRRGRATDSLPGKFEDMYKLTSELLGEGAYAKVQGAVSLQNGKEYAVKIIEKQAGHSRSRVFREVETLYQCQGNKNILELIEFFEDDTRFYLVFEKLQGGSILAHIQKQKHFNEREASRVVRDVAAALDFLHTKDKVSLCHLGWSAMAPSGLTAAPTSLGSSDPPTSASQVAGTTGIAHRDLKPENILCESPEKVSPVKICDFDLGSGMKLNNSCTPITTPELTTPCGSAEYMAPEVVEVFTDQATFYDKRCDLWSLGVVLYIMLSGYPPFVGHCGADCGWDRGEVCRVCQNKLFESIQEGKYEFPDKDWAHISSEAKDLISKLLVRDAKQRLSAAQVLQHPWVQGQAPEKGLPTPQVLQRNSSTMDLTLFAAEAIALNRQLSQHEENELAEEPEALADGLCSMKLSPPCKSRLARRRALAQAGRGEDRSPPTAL

[7] = molecular target: T2, Ephrin type-A receptor 8 (Homo sapiens) (UniProt P29322); assay: Inhibition of EPHA8 (unknown origin) at 10 uM after 120 mins P33 radiolabeled kinase activity assay
T2 sequence (whole entry): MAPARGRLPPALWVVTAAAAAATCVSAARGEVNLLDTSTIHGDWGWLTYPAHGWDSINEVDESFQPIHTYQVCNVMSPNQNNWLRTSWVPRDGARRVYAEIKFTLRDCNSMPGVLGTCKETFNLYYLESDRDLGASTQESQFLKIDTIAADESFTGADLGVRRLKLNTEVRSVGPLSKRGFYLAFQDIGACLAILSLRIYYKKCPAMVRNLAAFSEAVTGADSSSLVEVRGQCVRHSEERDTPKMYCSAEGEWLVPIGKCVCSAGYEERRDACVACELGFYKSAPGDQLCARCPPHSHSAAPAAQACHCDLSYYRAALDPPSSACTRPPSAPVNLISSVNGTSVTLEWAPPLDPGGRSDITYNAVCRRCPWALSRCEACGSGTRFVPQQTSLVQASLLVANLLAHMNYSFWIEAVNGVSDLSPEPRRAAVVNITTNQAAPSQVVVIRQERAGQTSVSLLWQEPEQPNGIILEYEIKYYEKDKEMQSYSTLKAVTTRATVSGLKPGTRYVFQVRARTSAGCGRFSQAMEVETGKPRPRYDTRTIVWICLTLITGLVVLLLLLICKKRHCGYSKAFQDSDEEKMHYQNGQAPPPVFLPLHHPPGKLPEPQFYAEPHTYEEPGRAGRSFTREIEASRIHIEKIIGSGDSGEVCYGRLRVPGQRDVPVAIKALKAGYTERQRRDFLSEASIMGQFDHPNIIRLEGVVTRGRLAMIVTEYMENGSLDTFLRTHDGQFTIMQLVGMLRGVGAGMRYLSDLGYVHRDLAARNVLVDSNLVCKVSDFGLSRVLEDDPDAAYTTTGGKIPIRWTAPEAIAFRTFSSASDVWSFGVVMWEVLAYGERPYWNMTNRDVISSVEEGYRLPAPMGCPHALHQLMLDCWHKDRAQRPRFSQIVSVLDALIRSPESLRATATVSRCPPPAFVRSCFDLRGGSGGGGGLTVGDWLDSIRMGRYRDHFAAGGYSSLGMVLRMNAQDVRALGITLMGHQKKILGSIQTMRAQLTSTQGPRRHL

Row | inhibition [1] | inhibition [2] | inhibition [3] | inhibition [4] | inhibition [5] | inhibition [6] | inhibition [7] | Structure (SMILES)
1 | 26.4% | 7.84% | 78.7% | -5.32% | 70.8% | 73% | 74.6% | CS(=O)(=O)c1cccc(Nc2nccc(-c3sc(N4CCOCC4)nc3-c3cccc(NS(=O)(=O)c4c(F)cccc4F)c3)n2)c1
2 | 3.54% | 9.22% | 12.3% | -4.59% | -3.76% | 28.7% | 12.2% | COCCNC(=O)c1ccc2c(c1)nc(-c1cnc(-c3ccc(Cl)cc3)[nH]1)n2CCOC
3 | 17.4% | 3.21% | 93.2% | -7.51% | 35.1% | 99.6% | 80.5% | CC(C)(C)c1cc(NC(=O)Nc2ccc(Oc3ccncc3)cc2)no1
